# According to PMC9016803, “Mitochondria-targeted half-sandwich iridium(III)-Cp*-arylimidazophenanthroline complexes as antiproliferative and bioimaging agents against triple negative breast cancer cells MDA-MB-468” (RSC Advances, 2022):
# Columns and labels:
# Solubility study = assay type: physicochemical; conditions: DMSO-10% DMEM medium (1 : 99 v/v, comparable to cell media)
# Method: (§1) Both hydrophilicity and lipophilicity studies were performed to determine the tumour-inhibiting potential of the metal complexes. These complexes were highly soluble in DMSO and moderately soluble in H2O, MeOH, EtOH and CH3CN. […] The lipophilicity of these complexes was determined by performing an n-octanol/water partition coefficient (log Po/w, where Po/w = the octanol/water partition coefficient) study using the shake flask method (Table 1).[24] The experimental log Po/w values of these complexes were determined to be in the range of 0.27–0.34 (Table 1). […] This change in the electrolytic behaviour of the complexes from 1 : 1 to 1 : 2 can be attributed to the dissociation of the Ir–Cl bond and subsequent aquation of the complexes.
# MDA-MB-468 cells [1] = test: ROS generation, DCFDA staining; assay type: cell-based
# Method: Our results indicated a dose dependent increase in ROS production in the MDA-MB-468 cells treated with IrL1 concentrations 1 μM and 3 μM. The extent of ROS production is indicated by the 2′,7′-dichlorofluorescein (DCF) formed by the deacetylation and subsequent oxidation of 2′,7′-dichlorofluorescin diacetate (DCFDA) through cellular esterases and ROS. […] ROS production was absent in untreated control. However, in the positive control, treated with H2O2, ROS production was high which is ∼99% (Fig. 11).
# Colocalization study and ROS generation studies were performed using live cell lines in their log phase.
# MDA-MB-468 cells [2] = test: Mitochondrial membrane potential, JC-1 staining, flow cytometry; assay type: cell-based
# Method: The cells treated with the mitochondrial uncoupler CCCP (carbonyl cyanide m-chlorophenylhydrazone), which mediates the dissipation of mitochondrial membrane potential, served as positive control for the detection of mitochondrial dysfunction. […] Unstained control represented in Fig. 10A has been used for gating purposes. […]
# [3] = n-Octanol/water partition coefficient, shake flask method; assay type: physicochemical
# Method: as §1, with “the complexes. […]” for “the complexes.”
# n-Octanol–water partition coefficient (log P o/w)9
# The log Po/w of the iridium complexes were adhering to shake flask method using the previously published procedure. A known amount of each complex (IrL1-IrL5) was suspended in water (pre-saturated with n-octanol) and shaken for 48 h on an orbital shaker.
# To allow the phase separation, the solution was centrifuged for 10 min at 3000 rpm. To obtain the partition coefficient, different ratios (0.5: 1, 1: 1, and 2: 1) of the saturated solutions were shaken with pre-saturated n-octanol for 20 min on an orbital shaker and followed the same procedure. Aliquots of the aqueous and octanol layers were pipetted out separately and the absorbances were measured with UV-Vis spectrophotometer using proper dilution. Each set was performed in triplicate, concentration of the substances in each layer was calculated using the respective molar extinction coefficients and the partition coefficient (log P o/w) values were obtained from the ratio.
# BSA = biological target: T1, BSA (Bos taurus, UniProt P02769); test: BSA binding, tryptophan emission quenching; set-up: species or system bovine
# T1 construct: purchased Sigma Aldrich Chemical Limited
# Method: Upon excitation at 295 nm, the emission intensity of BSA at λem = 350 nm decreased gradually on increasing the complex concentration, which confirmed that the interaction between complex IrL1 with BSA had occurred, as observed in Fig. 8. The Stern–Volmer quenching constant of these complexes with BSA (KBSA) was calculated using the Stern–Volmer equation and the corresponding Stern–Volmer plots (Fig. 8, inset). The binding affinity (K) of the complexes was calculated from Scatchard plot analysis (Fig. 8, inset). […]
# Kapp × [Complex]50 = kEtBr × [EtBr]⋯⋯⋯(iii) […]
# Stern-Volmer equation was followed for quantitative determination of the Stern-Volmer quenching constant (K SV).5 Origin (8.5) software was used to plot the fluorescence data to obtain linear plot of I0/I vs. [complex]. The value of KSV was calculated from the following […]
# Where I0 = fluorescence intensity in absence of complex and I = fluorescence intensities in presence of complex of concentration [Q].
# We are acquainted with the fact that serum albumin proteins are the main component. […] After each addition, the solutions were shaken slowly for 5 min before recording the fluorescence at a wavelength of 295 nm (λex = 295 nm). A gradual decrease in fluorescence intensity of BSA at λ = 340 nm was observed upon increasing the concentration of complex, which confirmed […]
# that the interaction between the complex and BSA was happened. Stern-Volmer equation was employed to quantitatively determine the quenching constant (K BSA). […]
# Where I0 is the fluorescence intensity of BSA in absence of complex and I indicates the fluorescence intensity of BSA in presence of complex of concentration [Q], τ0 = lifetime of the tryptophan in BSA found as 1 x 10-8 and kq is the quenching constant. […]
# To allow the phase separation, the solution was centrifuged for 10 min at 3000 rpm. […] Aliquots of the aqueous and octanol layers were pipetted out separately and the absorbances were measured with UV-Vis spectrophotometer using proper dilution. […]
# T1 sequence (P02769 25-607): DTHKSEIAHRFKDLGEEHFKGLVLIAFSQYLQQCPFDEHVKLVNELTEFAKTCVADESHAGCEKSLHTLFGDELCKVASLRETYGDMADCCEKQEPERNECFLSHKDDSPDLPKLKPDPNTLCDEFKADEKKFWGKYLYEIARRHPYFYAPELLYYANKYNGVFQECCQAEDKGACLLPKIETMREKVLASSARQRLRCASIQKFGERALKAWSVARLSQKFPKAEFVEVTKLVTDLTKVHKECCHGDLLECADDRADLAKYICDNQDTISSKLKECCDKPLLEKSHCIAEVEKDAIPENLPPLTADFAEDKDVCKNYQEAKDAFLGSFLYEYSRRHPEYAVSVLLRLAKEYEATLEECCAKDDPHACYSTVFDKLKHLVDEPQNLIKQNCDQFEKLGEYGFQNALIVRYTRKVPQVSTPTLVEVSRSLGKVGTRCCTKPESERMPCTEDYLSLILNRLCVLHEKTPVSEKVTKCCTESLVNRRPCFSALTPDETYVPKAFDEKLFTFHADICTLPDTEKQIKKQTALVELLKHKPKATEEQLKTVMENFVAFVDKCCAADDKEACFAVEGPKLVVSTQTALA
substance,measurement,setting,value
"[Iridium(III)-Cp*-2-(naphthalen-1-yl)-1H-imidazo[4,5-f][1,10]phenanthroline]PF6 [IrL1]",Solubility,Solubility study,700 µM
same,DCF positive cells,MDA-MB-468 cells [1]; 1 μM,55.01%
same,DCF positive cells,MDA-MB-468 cells [1]; 3 μM,70.67%
same,cells with damaged mitochondria (JC-1 monomers),MDA-MB-468 cells [2]; 1 μM,27.86%
same,cells with damaged mitochondria (JC-1 monomers),MDA-MB-468 cells [2]; 3 μM,~47.52%
same,cells with damaged mitochondria (JC-1 monomers),MDA-MB-468 cells [2]; 5 μM,67.02%
same,log P (n-octanol/water partition coefficient),[3],0.27 ± 0.07
same,"K, binding affinity (Scatchard plot)",BSA; BSA,6.3e+06 M⁻¹
same,"kq, bimolecular quenching constant",BSA; calculated from KSV and τ0 (1 × 10^−8 s),5 × 10^12 M^−1 S^−1
same,"KBSA, Stern–Volmer quenching constant with BSA",BSA; excitation 295 nm,50000 M⁻¹
